Results published in patent publication US12202858B2, “Solid-phase carrier including IgG-binding peptide, and IgG separation method” (KAGOSHIMA UNIVERSITY, priority 2018, dated 2025).
Bridges are numbered along the chain shown (N, C = ends). Primed or numbered codes have the meaning given here. Where no end group is shown, it is not given here. [ ]: non-standard residue; d: D form. PEG4′ = not defined here

How the values were obtained:
human IgG = assay: Affinity analysis by surface plasmon resonance (BIAcore T200), human IgG immobilized on sensor chip; format: binding; conditions: BIAcore T200, HBS-EP buffer pH 7.4, immobilized human IgG
Experimental: The affinity analysis was performed by the following method. First, a solution containing equal amounts of 0.4 M EDC (1-ethyl-3-(3-dimethylaminopropyl)-carbodiimide) and 0.1 M sulfo-NHS (sulfo-N-hydroxysuccinimide)) was injected at a flow rate of […] onto a CMS sensor chip set in BIAcore T200 (GE healthcare), thereby activating the sensor chip. Then, under the condition of pH 5.5 (10 mM Na acetate), human IgG was immobilized onto the sensor chip. For the measurement, HBS-EP buffer (10 mM HEPES, 150 mM NaCl, 0.005% Tween 20, 3 mM EDTA, pH 7.4) was used, and the binding reaction was monitored by injecting 15.6, 31.2, 62.5, 125, 250, 500, and 1000 nM of the purified cross-linked cyclic peptide described above for 180 seconds at a flow rate of […]. For measuring the dissociation reaction, only the buffer was injected for 600 seconds. The analysis of interaction parameters was performed using BIA evaluation T100 software.
In Comparative Example 1, the cross-linked cyclic peptide described in Patent Document 2 was synthesized, and measurement of affinity was performed in the same manner as in Example 1. Synthesis of the peptide and cross-linking reaction were carried out under the following conditions.

[1] = system: human serum-derived y-globulin; assay: Evaluation of alkali resistance: DBC after washing with 0.1 M sodium hydroxide solution; format: physicochemical; conditions: up to ten cycles of 0.1 M sodium hydroxide treatment
Experimental: The DBC measurement was performed using a liquid chromatography instrument AKTAexplore (GE Healthcare). After equilibrating the prepared column with an adsorption solution, 1 mg/mL human serum-derived y-globulin (Sigma-Aldrich) dissolved in the adsorption solution was fed at a flow rate of 1 mL/min. The DBC was determined from the amount of the sample fed until the value of an absorbance at 280 nm excluding the non-adsorbed component reached 10% of the absorbance of the entire sample.
To a 1-mg peptide-immobilized 1-mL column prepared by the same method as in Example 2, 10 mL of 0.1 M sodium hydroxide solution was fed. The column was then washed with 10 mL of an adsorption solution. After washing with the sodium hydroxide solution/adsorption solution for 1, 2, 5, and 10 times, measurement of DBC was performed at a flow rate of 1 mL/min in the same manner as in Example 2. The variation rate of DBC was determined based on the DBC before the sodium hydroxide treatment as 100%. […]

Row | Substance | Kd (human IgG) | koff (human IgG) | kon (human IgG) | decrease in DBC by sodium hydroxide treatment (alkali resistance) [1]
1 | PEG4-modified, amidated GPDCAYHRGELVWCTFH peptide of Patent Document 2, cysteine sulfide groups linked via 1,3-dichloro-2-propanone-derived linker ([PEG4′]GPDCAYHRGELVWCTFH-NH2; bridge 5-15; not fully specified (bridges)) [Comparative Example 1, reference compound] | 4900 nM | 0.005 s⁻¹ | 1000 M⁻¹ s⁻¹ | –
2 | N-terminal PEG4-modified, C-terminal amidated cross-linked cyclic peptide GPDCAYHRGELVWCTFH (SEQ ID NO: 31), two cysteine residues linked as in the formula [Example 1] | 340 nM | 0.22 s⁻¹ | 650000 M⁻¹ s⁻¹ | almost no decrease in DBC
